Measurements reported in patent publication US7423053B2, “4-Aminothiazole derivatives” (Hoffmann-La Roche Inc., priority 2004, dated 2008).

Tests used:
Type in all cases: biochemical
Conditions in all cases: Rb substrate, ATP at 3x Km, Ki=IC50/(1+S/Km)
human cyclin E-CDK2 = human cyclin E-CDK2 (Homo sapiens, UniProt P24941); experiment: CDK2 HTRF kinase assay (Ki measurement)
Procedure: (§1) This experiment was conducted using recombinant human cyclin B-CDK1, human cyclin E-CDK2 or human cyclin D1-CDK4 complexes. GST-cyclinE (GST-cycE), CDK2, GST-cyclinB (GST-cycB), CDK1, GST-CDK4 and cyclin D1 (cycD1) cDNA clones in baculovirus vectors were provided by Dr. W. Harper at the Baylor College of Medicine, Houston, Tex. Proteins were co-expressed in High Five™ insect cells and the complex was purified on glutathione Sepharose resin (Pharmacia, Piscataway, N.J.) as previously described (Harper, J. W. et al. Cell 1993, 75, 805-816). […]
(§2) The expression of the 62 Kd protein was under the control of an IPTG inducible promoter in an M15 E. coli strain. […] Purified Rb fusion protein stocks were quantitated for protein concentration, aliquoted, and stored at −70° C.
(§3) Using the protein constructs described above, CDK1, CDK2, and CDK4 HTRF assays were set up. These were done in 96-well format and read in 384-well plate format. […]
(§4) In the CDK4 assay, test compounds were diluted to 3× ntheir final concentrations in 25 mM Hepes, pH 7.0, 6.25 mM MgCl2, 1.5 mM DTT, 135 μM ATP. […] The plates were read using either ViewLux or Victor V readers (PerkinElmer Life Sciences) using an excitation wavelength of 340 nm and dual emission wavelengths of 615 nm and 665 nm. […]

human cyclin B-CDK1 = human cyclin B-CDK1 (Homo sapiens, UniProt P06493); experiment: CDK1 HTRF kinase assay (Ki measurement)
Procedure: as §1, §2, §3, §4

human cyclin D1-CDK4 = human cyclin D1-CDK4 (Homo sapiens, UniProt P11802); experiment: CDK4 HTRF kinase assay (Ki measurement)
Procedure: as §1, §2, §3, §4

Sequence of human cyclin D1-CDK4 (P11802 whole entry): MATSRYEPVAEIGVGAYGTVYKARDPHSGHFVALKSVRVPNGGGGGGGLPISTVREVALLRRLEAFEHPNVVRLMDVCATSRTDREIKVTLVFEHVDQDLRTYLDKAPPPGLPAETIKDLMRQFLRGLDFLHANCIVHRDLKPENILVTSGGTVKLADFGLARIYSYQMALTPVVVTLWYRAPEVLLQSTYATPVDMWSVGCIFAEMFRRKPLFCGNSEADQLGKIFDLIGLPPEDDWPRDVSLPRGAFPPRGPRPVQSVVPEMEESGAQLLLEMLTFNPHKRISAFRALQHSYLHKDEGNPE
Sequence of human cyclin D1-CDK4 (P24385 whole entry partner): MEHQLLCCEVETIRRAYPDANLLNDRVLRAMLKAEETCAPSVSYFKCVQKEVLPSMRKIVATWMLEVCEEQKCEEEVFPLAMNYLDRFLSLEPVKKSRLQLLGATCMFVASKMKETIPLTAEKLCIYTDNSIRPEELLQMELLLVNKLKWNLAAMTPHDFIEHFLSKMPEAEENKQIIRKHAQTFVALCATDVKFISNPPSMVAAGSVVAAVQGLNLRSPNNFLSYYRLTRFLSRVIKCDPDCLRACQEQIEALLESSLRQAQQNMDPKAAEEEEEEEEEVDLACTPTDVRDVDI
Sequence of human cyclin B-CDK1 (P06493 whole entry): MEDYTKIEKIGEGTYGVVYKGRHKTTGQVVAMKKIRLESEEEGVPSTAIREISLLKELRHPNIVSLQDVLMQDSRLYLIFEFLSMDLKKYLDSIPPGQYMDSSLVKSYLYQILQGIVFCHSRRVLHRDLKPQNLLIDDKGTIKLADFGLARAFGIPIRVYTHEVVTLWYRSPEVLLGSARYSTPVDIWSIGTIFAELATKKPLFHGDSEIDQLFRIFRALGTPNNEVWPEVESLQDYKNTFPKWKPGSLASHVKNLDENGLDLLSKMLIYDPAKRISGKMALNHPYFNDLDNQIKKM
Sequence of human cyclin B-CDK1 (P14635 whole entry partner): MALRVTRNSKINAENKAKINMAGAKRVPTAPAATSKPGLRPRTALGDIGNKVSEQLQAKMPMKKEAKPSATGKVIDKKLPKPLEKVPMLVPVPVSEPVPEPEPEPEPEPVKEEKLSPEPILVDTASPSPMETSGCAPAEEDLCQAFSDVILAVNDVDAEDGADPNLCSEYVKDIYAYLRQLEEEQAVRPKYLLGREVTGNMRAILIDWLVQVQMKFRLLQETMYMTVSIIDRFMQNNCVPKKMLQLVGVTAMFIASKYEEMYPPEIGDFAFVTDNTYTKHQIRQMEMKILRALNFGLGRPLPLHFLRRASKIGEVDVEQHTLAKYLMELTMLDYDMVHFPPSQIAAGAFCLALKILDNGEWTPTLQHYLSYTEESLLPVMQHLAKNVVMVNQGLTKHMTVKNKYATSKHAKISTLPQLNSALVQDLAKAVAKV

Compound | Ki (human cyclin E-CDK2) | Ki (human cyclin B-CDK1) | Ki (human cyclin D1-CDK4)
COc1ccc(F)c(F)c1C(=O)c1sc(NC2CCN(S(C)(=O)=O)CC2)nc1N [Example 14, [4-Amino-2-(1-methanesulfonylpiperidin-4-ylamino)thiazol-5-yl]-(2,3-difluoro-6-methoxyphenyl)methanone] | 1 nM | 1 nM | 2 nM
CS(=O)(=O)N1CCC(Nc2nc(N)c(C(=O)c3c(F)cccc3F)s2)CC1 [Example 17, [4-Amino-2-(1-methanesulfonyl-piperidin-4-ylamino)thiazol-5-yl]-(2,6-difluorophenyl)methanone] | 5 nM | 3 nM | 6 nM
